System: DSS-induced colitis
Assay: DSS-induced colitis in rats, histological total colitis score of colon sections (HE staining)
Format: in vivo
Conditions: male Sprague-Dawley rats, 5% DSS D0-D8 then 2% DSS D9-D28, control diet supplemented with 10 g/kg dry matter serine (DSS-SER) vs alanine-supplemented DSS-ALA group
Experimental: The experimental procedures were carried out in accordance to European guidelines for the care and use of laboratory animals (Directive 2010/63/UE). 30 male Sprague-Dawley rats from Janvier (France), aged […] and weighting around 500/700g on the day of arrival, were used for this study. Animals were individually housed in cages. During the study, they had free access to food and drinking water or a dextran sulfate sodium (DSS, MW 36-44 kDa, ICN Biomedicals) solution ad libitum. Colitis was induced by treating rats with 5% DSS from D0 to D8 (acute colitis) and then 2% DSS from D9 to D28 (chronic colitis). DSS was dissolved in autoclaved water and provided ad libitum to the rats. Animals of the control group were given water not containing DSS from D0 to D28.
3 groups of rats received the following treatment and diets: […]
At the end of the experiment (D28), animals were anesthetized using a combination of ketamine and xylasine and then euthanized by cervical dislocation. […] A score (ranging from 0 to 3) was finally determined for each criterion on each colon section and a total score was calculated.

N[C@@H](CO)C(=O)O [Serine, serine]
Total colitis score (sum of 0-3 scores for mucosal degeneration, mucosal regeneration and hyperplasia, acute and sub-acute inflammation) (p<0.05): significantly lower | Total colitis score (sum of 0-3 scores for mucosal degeneration, mucosal regeneration and hyperplasia, acute and sub-acute inflammation) (p<0.05, listed as serine): reduced colitis

Source: patent publication US20180021278A1, “TREATMENT OR PREVENTION OF INFLAMMATION USING SERINE” (NESTEC S.A., priority 2015, published 2018)
